Experimental data reported in US12521356B2, “Compositions and methods for treating pain, inflammation, infection, malaria, and sepsis” (Duke University, priority 2018, dated 2026).

Key:
ALX = target: T1, ALX (Homo sapiens, UniProt P25090); experiment: Ca2+ imaging (Fura-2AM) in HEK293 cells transfected with ALX cDNA; assay type: cell-based; conditions: HEK293 cells expressing ALX
T1 construct: host or cells: HEK293 flip-in cells
T1 sequence (P25090 1-351): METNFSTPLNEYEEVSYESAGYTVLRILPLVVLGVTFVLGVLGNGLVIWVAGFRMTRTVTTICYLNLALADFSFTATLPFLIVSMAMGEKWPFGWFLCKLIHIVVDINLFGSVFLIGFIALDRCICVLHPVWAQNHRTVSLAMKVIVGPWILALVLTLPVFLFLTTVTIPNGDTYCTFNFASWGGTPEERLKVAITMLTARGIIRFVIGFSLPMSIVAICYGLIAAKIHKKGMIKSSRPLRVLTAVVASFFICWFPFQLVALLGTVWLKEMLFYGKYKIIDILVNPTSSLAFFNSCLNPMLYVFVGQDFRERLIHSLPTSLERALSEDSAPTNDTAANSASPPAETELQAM
From the text: FIG. 10A-FIG. 10C. Characterization of intracellular Ca^2+ changes in HEK293 cells expressing ChemR23, GPR32, and ALX. Ca^2+ imaging with Fura-2AM indicator showing iCa^2+ levels in HEK293 cells transfected with ChemR23 (FIG. 10A), GPR32 (FIG. 10B), and ALX (FIG. 10C) cDNAs. Note that NPD1 fails to elicit iCa^2+ increase in HEK293 cells expressing ChemR23, GPR32, and ALX. […] ATP is included as a positive control. *P<0.05, compared with baseline n=44˜97 cells from 3 cultures. All the data are expressed as mean±s.e.m.
HEK cell culture and transfection. HEK293 flip-in cell line was purchased from Duke Cell Culture Facility. Cells were cultured in high glucose (4.5 g/L) Dulbecco's Modified Eagle's Medium containing 10% (v/v) fetal bovine serum (Gibco). Transfection (2 μg cDNA) was performed with Lonza electroporation (Lonza) at 70% confluency and the transfected cells were cultured in the same growth medium for 48 h before use. The hGPR37-V5 pLenti304 plasmids were obtained from DNASU (Tempe, AZ), and hGPR32, hChemR23 and hALX pcDNA3 plasmids were provided by Dr. Serhan from Harvard Medical School, Boston.
(§1) Calcium imaging. HEK 293 cells, with or without transfection of Gpr37, GPR32, ChemR23 or ALX1 cDNA, were loaded with 5 μM Fura-2AM (Invitrogen) for 1 hour and then were resuspended in normal external buffer (140 NaCl, 5 KCl, 2 CaCl2, 2 MgCl2, 10 HEPES, in mM, titrated to pH 7.4 with NaOH) or external Ca^2+-free buffer (140 NaCl, 2 MgCl2, 5 EGTA, 10 HEPES, in mM, titrated to pH 7.4 with NaOH). Peritoneal macrophages, collected from WT and Gpr37 KO mice, were loaded with 5 μM […] (Invitrogen) for 1 hour and then were resuspended in normal external buffer. Images of the HEK 293 cells and macrophages with the excitation wavelength of 340 nm and 380 nm were captured with a cooled Digital CMOS camera (ORCA-Flash 4.0, Hamamatsu Photonics K.K, Japan). The ratio of fluorescence intensity of the two wavelengths in each experiment was analyzed using MetaFluor (Molecular Devices). The Shutter speed and wavelength was controlled by Lambda DG-4 system (Sutter instrument Co., Novato, CA). Values from each of the experiments were normalized to the baseline ratio of 340/380 nm.
Several SPM receptors have been identified such as ChemR23 for RvE1, GPR32 for RvD1, and ALX for lipoxin A. We transfected human cDNAs of ChemR23, GPR32, and ALX in HEK293 cells and checked Ca^2+ responses following the treatment of each SPM.

pMΦ = experiment: ELISA of cytokines in zymosan-stimulated pMΦ cultures; assay type: cell-based, mouse
Method: FIG. 14A-FIG. 14C. NPD1 regulates cytokine expression in cultured macrophages via GPR37. ELISA showing the expression of pro-inflammatory cytokine IL-1β (FIG. 14A) and anti-inflammatory cytokines IL-10 (FIG. 14B) and TGF-β (FIG. 14C) in pMΦ from WT and Gpr37^−/− mice. pMΦ were stimulated with 100 μg/mL zymosan for 24 h. Note that NPD1 differentially regulates the expression of pro- and anti-inflammatory cytokines. *P<0.05; n=3 cultures/group. All the data are mean±SEM.
ELISA. Mouse ELISA kits for IL-1β, TGF-β and IL10 were purchased from R&D system (Minneapolis, MN, Catalog: MLB00C for IL-1β, Catalog: MB100B for TGF-β, and Catalog: M1000B for IL-10). ELISA was performed using culture medium and hindpaw skin tissues. Cultured cells and tissues were homogenized in a lysis buffer containing protease and phosphatase inhibitors. For each Elisa assay, 50 μg proteins or 50 μL of culture medium were used. ELISA was conducted according to manufacturer's instructions. The standard curve was included in each experiment.
(§2) Peritoneal macrophage culture. Peritoneal macrophages were collected by peritoneal lavage with 10 ml warm PBS containing of 1 mM EDTA. Cells were incubated in DMEM supplemented with 10% FBS at 37° C. for 2 h in petri dish and washed with PBS to eliminate non-adherent cells. The adherent cells were used as peritoneal macrophages. Peritoneal macrophages were used after 3 days of culture.

GPR37 = experiment: Ca2+ imaging (Fluo-4AM) in peritoneal macrophages (pMΦ) from WT and Gpr37−/− mice; assay type: cell-based, mouse; conditions: 30 nM; Gpr37-deficient pMΦ
Method: as §2, §1
Next, we conducted GPR37-mediated Ca^2+ imaging in native pMΦ from WT and Gpr37^−/− mice using Fluo-4AM as a Ca^2+ indicator, since this dye works better than Fura-2AM for pMΦ. […] As compared to iCa^2+ increase in GPR37-expressing HEK293 cells, NPD1 trigger a slow-onset but more persistent Ca^2+ response in pMΦ (FIG. 2B and FIG. 2G). A relatively rapid calcium response in HEK293 cells may result from over-expression of GPR37. A sustained iCa^2+ increase in pMΦ may result from the expression of transient receptor potential (TRP) ion channels in these immune cells. It is noteworthy that macrophages express TRPV2 or TRPM2, which are involved in phagocytosis during bacterial infection. […] NPD1-triggered iCa^2+ increase in pMΦ is also Gi-dependent, since PTX blocked this increase (FIG. 2H). For comparison, ATP-evoked iCa^2+ increase was not altered in GPR37-deficient pMΦ (FIG. 2H).

[1] = pMΦ cultures, zymosan 100 μg/mL for 24 h

iCa2+ increase / Ca2+ response (ALX): failed to elicit iCa^2+ increase
Structure (SMILES): CC/C=C\C[C@H](O)\C=C/C=C/C=C/[C@H](O)C/C=C\C/C=C\CCC(=O)O [NPD1, neuroprotectin D1]
IL-1β levels (pMΦ; [1]): suppressed
IL-10 levels (pMΦ; [1]): increased
TGF-β levels (pMΦ; [1]): increased
dependence of cytokine effects on GPR37 (pMΦ; pMΦ from WT and Gpr37−/− mice): required GPR37
iCa2+ increase (GPR37): abolished
